Assay: Solubility of the active agent depending on pH
Assay type: physicochemical
Conditions: basic conditions
Description: The tablets were prepared similarly as described in Example 3.

COc1ccc2c(O[C@@H]3C[C@H]4C(=O)N[C@]5(C(=O)O)CC5/C=C\CCCCC[C@H](NC(=O)OC5CCCC5)C(=O)N4C3)cc(-c3csc(NC(C)C)n3)nc2c1 (stereo partly drawn) [(Z)-(1S,4R,14S,18R)-14-Cyclopentyloxycarbonylamino-18-[2-(2-isopropylamino-thiazol-4-yl)-7-methoxy-quinolin-4-yloxy]-2,15-dioxo-3,16-diaza-tricyclo[14.3.0.0^4,6]nonadec-7-ene-4-carboxylic acid]
solubility: higher solubility in basic conditions

Reference: patent publication US20060068007A1, “Class of surfactant-like materials” (Boehringer Ingelheim Pharmaceuticals, Inc., priority 2004, published 2006)
